Source: patent US20230172825A1, “COMPOSITION FOR IMPROVING SKIN COMPRISING AMINO ACID COMPLEX AS ACTIVE INGREDIENT” (NATURE IN LAB. INC., priority 2021, published 2023)

Columns and labels:
Type in all cases: cell-based, human
MMP-1 = experiment: Inhibition of MMP-1 gene expression in UVA-damaged cells (real-time PCR); details: UVA-irradiated CCD-1064Sk, 24 hours, concentration 1 µg/mℓ; UVA alone 100.0, control group 50.5
Method: Human dermal fibroblasts (CCD-1064Sk, ATCC® CRL-2076™) were inoculated into a 60-mm dish using IMDM (Welgene, Korea) and cultured for 24 hours, followed by UVA irradiation. Afterwards, the medium was replaced with fresh serum-free IMDM, and samples were each treated at different concentrations and cultured for 24 hours at 37° C. in a 5 % CO2 incubator. After removal of the medium, the cells were collected by using QIAzol™ Lysis Reagent (Qiagen), and RNA thereof was isolated according to the protocol of the manufacturer. After quantifying the isolated RNA, cDNA was synthesized with 1 µg of RNA, followed by Real-time PCR (Applied Biosystems, 7500 FAST Real-Time PCR System).

collagen type III = experiment: Gene expression of collagen type III (real-time PCR); details: CCD-1064Sk, 24 hours, concentration 100 µg/mℓ; control group 100.0
Method: Human dermal fibroblasts (CCD-1064Sk, ATCC® CRL-2076™) were inoculated into a 60 mm dish using IMDM (Welgene, Korea), cultured for 24 hours, and then replaced with fresh serum-free IMDM. […] After removal of the medium, the cells were collected by using QIAzol™ Lysis Reagent (Qiagen), and RNA thereof was isolated according to the protocol of the manufacturer. After quantifying the isolated RNA, cDNA was synthesized with 1 µg of RNA, followed by Real-time PCR (Applied Biosystems, 7500 FAST Real-Time PCR System).

collagen type I = experiment: Gene expression of collagen type I (real-time PCR); details: CCD-1064Sk, 24 hours, concentration 100 µg/mℓ; control group 100.0
Method: After removal of the medium, the cells were collected by using QIAzol™ Lysis Reagent (Qiagen), and RNA thereof was isolated according to the protocol of the manufacturer. After quantifying the isolated RNA, cDNA was synthesized with 1 µg of RNA, followed by Real-time PCR (Applied Biosystems, 7500 FAST Real-Time PCR System).

## O=C(O[C@@H]1Cc2c(O)cc(O)cc2O[C@@H]1c1cc(O)c(O)c(O)c1)c1cc(O)c(O)c(O)c1 [EGCG]
MMP-1
  Mean (gene expression of MMP-1): 56.7

## O=C1O[C@H]([C@@H](O)CO)C(O)=C1O [Vitamin C, vitamin C]
Collagen type III
  Mean (gene expression of collagen type III): 135.6
Collagen type I
  Mean (gene expression of collagen type I): 134.2
